From paper PMC2671563 (PLoS Biology, 2009)

How the values were obtained:
[1] = target: T1, mS100A8/A9 and mLPS-Trap (Mus musculus, UniProt P31725); test: SPR: inhibition of mouse S100A8/A9 binding to mLPS-Trap; settings: Table S1; read-out: S100A8-9 binding IC50, mS100A8/A9 TLR4
T1 sequence (P31725 2-113 limits assumed): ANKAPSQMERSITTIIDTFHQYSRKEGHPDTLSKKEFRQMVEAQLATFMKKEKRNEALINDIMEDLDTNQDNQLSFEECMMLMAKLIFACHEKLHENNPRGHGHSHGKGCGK
Protocol: (§1) The SPR analysis was carried out with the Biacore 3000 system (GE Healthcare). Sensor chips, amine coupling kit, immobilization and running buffers, and regeneration solutions were obtained from GE Healthcare. Working solutions of all reagents used for Biacore analysis were prepared in 0.01 M Hepes, 0.15 M NaCl (pH 7.4) containing 0.005% v/v Surfactant P-20 (HBS-P; GE Healthcare) by buffer exchange on Fast Protein Desalting Micro-Spin Columns from Pierce. ABR-215757 was immobilised onto a CM5 chip through an amino-linker (ABR-224649). […] Activity of ligands after immobilisation was tested by injecting specific antibodies (unpublished data). In some experiments, S100A9 was immobilized either by random amine coupling or with a known orientation (i.e., by sulhydryl group conjugation to the only cysteine in S100A9 at position 3).
(§2) Binding to the various surfaces was performed by injecting the analyte at a flow rate of 30 μl/min in a physiological buffer (HBS-P) containing 1 mM Ca^2+ and 10 μM Zn^2+ as proposed for S100A8/9 by Robinson et al.. A typical analysis cycle consists of: (1) pumping running buffer for 1 min to obtain a stable baseline; (2) injection of sample for an appropriate period of time (association); (3) pumping running buffer for 2.5 min (dissociation); (4) injection of a short pulse (30 s) of 15 μl 10 mM glycine-HCl (pH 2.0) (regeneration); and (5) pumping running buffer for 2 min (stabilisation after regeneration) at a flow rate of 30 μl/min. […] In one experiment, S100A9 was injected into a buffer with a fixed Ca^2+ concentration (1 mM) and Zn^2+ in the range 0–50 μM. In a second experiment, Ca^2+ was varied from 0–2 mM at a fixed Zn^2+ concentration (10 μM). In subsequent analyses, regeneration was carried out under more mild conditions, i.e., by injecting 30 μl of HBS-P containing 3 mM EDTA (HBS-EP; GE Healthcare) for 60 s, to prolong the lifespan of the chip.
(§3) Compounds were also injected over the immobilised surfaces in the absence of S100A9 to exclude, or make possible correction for, any direct binding of compound to the surface.
(§4) Evaluation was carried out using BIAevaluation Software version 3.2 (GE Healthcare). The response at steady-state was obtained by fit of sensorgrams to standard binding models, where appropriate, or calculated as responses at late association or early dissociation phase using the Steady state affinity function in BIAevaluation. Affinity was determined from kinetic analysis (on- and off-rates) or as the apparent affinity after plotting responses versus concentration of analyte in a saturation curve. In the inhibition assay format, the competitor concentration yielding 50% inhibition (IC50) was calculated by fitting data to a one-site competition model in GraphPad Prism.

[2] = target: T2, mS100A9 (Mus musculus, UniProt P31725); test: SPR: inhibition of mouse S100A9 binding to immobilised ABR-224649; settings: Table S1
T2 construct: made in house; host or cells: Escherichia coli (or purified from granulocytes)
T2 sequence (P31725 1-113): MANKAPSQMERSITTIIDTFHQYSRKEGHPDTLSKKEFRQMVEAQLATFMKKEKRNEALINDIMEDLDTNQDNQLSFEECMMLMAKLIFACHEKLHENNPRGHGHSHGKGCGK
Protocol: as §1, §2, §3, §4

[3] = target: T3, human S100A9 binding to human TLR4/MD2 (Homo sapiens, UniProt P06702); test: SPR: inhibition of human S100A9 binding to immobilised human TLR4/MD2; settings: for IC50: Table S1, read-out: S100A9 binding IC50, hS100A9 TLR4
T3 construct: purchased R&D Systems (TLR4/MD-2 complex); S100A9 made in house
T3 sequence (P06702 1-114): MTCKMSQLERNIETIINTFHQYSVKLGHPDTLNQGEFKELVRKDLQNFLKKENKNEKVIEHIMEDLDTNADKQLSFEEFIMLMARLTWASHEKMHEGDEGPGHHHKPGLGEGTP
Protocol: as §1, §2, §3, §4

[4] = target: T4, mS100A9 and mRAGE/hFc (Mus musculus, UniProt P31725); test: SPR: inhibition of mouse S100A9 binding to immobilised mouse RAGE; settings: read-out: S100A9 binding IC50, mS100A9 RAGE; Table S1
T4 construct: purchased R&D Systems (mRAGE/Fc); S100A9 made in house
T4 sequence (P31725 2-113 limits assumed): T1 sequence (P31725 2-113 limits assumed)
Protocol: as §1, §2, §3, §4

[5] = tested on: aEAE development in SLJ/N mice; test: acute experimental autoimmune encephalomyelitis (aEAE) in mice; assay type: in vivo, mouse
From the text: A training set of five quinoline derivatives with structural diversification performed at position 5 of the quinoline ring system was used for the SAR. PCA was used to uncover any relationship between the binding activities of the quinoline derivatives at the S100 proteins and the inhibitory effect of these derivatives in the aEAE model. PLS was then used to model the relationship between the physiochemical descriptors used to characterize the compounds and their biological responses. […] All variables were mean centred and scaled to unit variance.

[6] = target: T5, mS100A9 and mLPS-Trap (Mus musculus, UniProt P31725); test: SPR: inhibition of mouse S100A9 binding to immobilised mouse TLR4/MD2 fusion protein (mLPS-Trap); settings: for IC50: Table S1
T5 sequence (P31725 2-113 limits assumed): T1 sequence (P31725 2-113 limits assumed)
Protocol: as §1, §2, §3, §4

[7] = target: T6, human S100A9 binding to human RAGE (Homo sapiens, UniProt P06702); test: SPR: inhibition of human S100A9 binding to immobilised human RAGE; settings: read-out: S100A9 binding IC50, hS100A9 RAGE; Table S1
T6 construct: purchased R&D Systems (RAGE/Fc); S100A9 made in house
T6 sequence (P06702 1-114): T3 sequence (P06702 1-114)
Protocol: as §1, §2, §3, §4

[8] = target: T7, mS100A8/A9 and mRAGE (Mus musculus, UniProt P31725); test: SPR: inhibition of mouse S100A8/A9 binding to mouse RAGE; settings: read-out: S100A8-9 binding IC50, mS100A8/A9 RAGE; Table S1
T7 construct: purchased R&D Systems (mRAGE/Fc); S100A8/A9 made in house
T7 sequence (P31725 2-113 limits assumed): T1 sequence (P31725 2-113 limits assumed)
T7 sequence (P27005 2-89 partner limits assumed): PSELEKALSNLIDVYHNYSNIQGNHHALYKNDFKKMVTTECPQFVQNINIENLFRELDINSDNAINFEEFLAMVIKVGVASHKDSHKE
Protocol: as §1, §2, §3, §4

[9] = target: T8, human S100A9 (Homo sapiens, UniProt P06702); test: SPR: human S100A9 binding to immobilised ABR-224649 (Q compound), direct binding and displacement
T8 construct: made in house; host or cells: Escherichia coli (or purified from granulocytes)
T8 sequence (P06702 1-114): T3 sequence (P06702 1-114)
Protocol: as §1, §2, §3, §4

Work on `CCN(C(=O)c1c(O)c2ccccc2n(C)c1=O)c1ccccc1` [ABR-212662] yielded an IC50 [1] of 576 µM, an IC50 [2] of 1940 µM and an IC50 [3] of 415 µM. For the same compound, the IC50 [4] was 1030 µM, the “aEAE Inhibition ED50” value [5] was 1.87 mg/kg and the IC50 [6] was 1970 µM. The IC50 [7] was 436 µM and the IC50 [8] was 720 µM.
For `CCN(C(=O)c1c(O)c2c(C)cccc2n(C)c1=O)c1ccccc1` [ABR-215111], the IC50 [1] was 293 µM, the IC50 [2] was 1340 µM and the IC50 [3] was 217 µM. The IC50 [4] was 783 µM, the “aEAE Inhibition ED50” value [5] was 0.55 mg/kg and the IC50 [6] was 1240 µM. It also gave an IC50 [7] of 168 µM and an IC50 [8] of 310 µM.
`CCN(C(=O)c1c(O)c2c(SC)cccc2n(C)c1=O)c1ccccc1` [ABR-215628] showed an IC50 [1] of 257 µM, an IC50 [2] of 906 µM and an IC50 [3] of 154 µM. The IC50 [4] was 447 µM, the “aEAE Inhibition ED50” value [5] was 0.20 mg/kg and the IC50 [6] was 780 µM. For the same compound, the IC50 [7] was 135 µM and the IC50 [8] was 174 µM.
In the case of `CCN(C(=O)c1c(O)c2c(C(F)(F)F)cccc2n(C)c1=O)c1ccccc1` [ABR-215629], the IC50 [1] is reported as 301 µM, the IC50 [2] is reported as 916 µM and the IC50 [3] is reported as 79 µM. For the same compound, the IC50 [4] was 230 µM, the “aEAE Inhibition ED50” value [5] was 0.13 mg/kg and the IC50 [6] was 741 µM. For the same compound, the IC50 [8] was 351 µM.
`CCN(C(=O)c1c(O)c2c(Br)cccc2n(C)c1=O)c1ccccc1` [ABR-215727] showed an IC50 [1] of 200 µM, an IC50 [2] of 522 µM and an IC50 [3] of 87.9 µM. For the same compound, the IC50 [4] was 191 µM, the “aEAE Inhibition ED50” value [5] was 0.16 mg/kg and the IC50 [6] was 440 µM. It also gave an IC50 [7] of 78.7 µM and an IC50 [8] of 164 µM.
With `CCc1cccc2c1c(O)c(C(=O)N(CCOCCN)c1ccccc1)c(=O)n2C` [ABR-224649] the “ability to displace S100A9 binding to immobilised ABR-224649” value ([9]; coinjected with S100A9, unpublished data) was “very similar ability to displace binding as ABR-215757” and the Kd ([9]; steady-state responses vs 25–200 nM S100A9, 1 mM Ca2+, 10 μM Zn2+, read-out: half-maximal binding of S100A9 to immobilised ABR-224649) was 0.085 µM.
With “lipopolysaccharide [LPS, reference compound]” the “effect on hS100A9 binding to immobilised hTLR4/MD2” value ([3]; 200 ng/ml) was “no effect” and the “effect on mS100A9 binding to immobilised mLPS-Trap” value [6] was “no effect”.
